US5990158A, “Carboxylic acid derivatives, method of manufacturing the same and therapeutic agents containing these compounds” (Kotobuki Seiyaku Co., Ltd., priority 1996, dated 1999)

Legend:
MMP-9 (gelatinase B) = target: T1, MMP-9 (gelatinase B) (Homo sapiens, UniProt P14780); assay: MMP-9 (gelatinase B) inhibitory activity, FITC-labeled type IV collagen degradation; format: biochemical; conditions: 50% inhibition of collagen type IV degradation; MMP-9 derived from human fibrosarcoma; 42° C., 4 h
T1 construct: purchased Yagai Co. Ltd; host or cells: human fibrosarcoma
Protocol: (§1) Experiment 2: MMP-2 (gelatinase A) and MMP-9 (gelatinase B) inhibitory activities.
(§2) Pro MMP-2 was obtained from culture medium separated from human pro-MMP-2 cDNA tranfected COS-1 cells. It was activated by 1 mM (p-aminophenyl)mercury acetic acid, and MMP-9, derived human fibrosarcome,was purchased from Yagai Co. Ltd. Inhibition of both enzyme activities were estimated by enzyme assay using type IV collagenase activity assay kit (Yagai Co. Ltd., Biswaz, C. et al., J. Cell.Biochem., 28, 39 (1984)). MMP-2 or MMP-9 (0.01 U/ml), test compound (several concentrations), and FITC-labeled type IV collagen (derived bovine placenta, 25 μg) were incubated in 100 μl of 0.05M Tris - HCl buffer (pH 7.5) containing 200 mM NaCl and 5 mM CaCl2 at 42° C. for 4 h. Inhibitory activity of compound was evaluated by same as that of MMP-1 assay. Unchanged type IV collagen was precipitated by centrifugation, and the degradation percent of substrate was calculated by comparison with a fluorescence intensity of heat denatured substrate as 100%. Inhibition of enzyme activity was expressed as an IC50 value which was the concentration of test compound necessary to produce 50% inhibition of collagen type IV degradation by enzyme.

MMP-2 (gelatinase A) = target: T2, MMP-2 (gelatinase A) (Homo sapiens, UniProt P08253); assay: MMP-2 (gelatinase A) inhibitory activity, FITC-labeled type IV collagen degradation; format: biochemical; conditions: 50% inhibition of collagen type IV degradation; activated pro MMP-2 from transfected COS-1 cells; 42° C., 4 h
T2 construct: made in house; host or cells: COS-1 cells transfected with human pro-MMP-2 cDNA (secreted into culture medium)
T2 sequence (P08253 110-660): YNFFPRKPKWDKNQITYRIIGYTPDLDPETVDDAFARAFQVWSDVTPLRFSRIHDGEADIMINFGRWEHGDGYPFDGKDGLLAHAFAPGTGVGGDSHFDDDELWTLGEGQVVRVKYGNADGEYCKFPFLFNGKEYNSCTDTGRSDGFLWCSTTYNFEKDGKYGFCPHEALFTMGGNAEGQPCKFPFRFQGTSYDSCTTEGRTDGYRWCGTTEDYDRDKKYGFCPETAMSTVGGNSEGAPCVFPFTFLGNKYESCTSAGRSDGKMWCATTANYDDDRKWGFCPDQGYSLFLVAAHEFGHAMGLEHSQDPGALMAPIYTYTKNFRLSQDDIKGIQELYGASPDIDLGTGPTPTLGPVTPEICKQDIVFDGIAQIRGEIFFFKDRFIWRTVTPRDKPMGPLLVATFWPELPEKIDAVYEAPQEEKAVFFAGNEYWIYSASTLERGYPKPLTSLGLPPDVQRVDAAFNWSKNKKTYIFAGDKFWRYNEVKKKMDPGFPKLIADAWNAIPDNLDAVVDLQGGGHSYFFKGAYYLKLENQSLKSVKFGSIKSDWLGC
Protocol: as §1, §2

T1 sequence (P14780 94-707): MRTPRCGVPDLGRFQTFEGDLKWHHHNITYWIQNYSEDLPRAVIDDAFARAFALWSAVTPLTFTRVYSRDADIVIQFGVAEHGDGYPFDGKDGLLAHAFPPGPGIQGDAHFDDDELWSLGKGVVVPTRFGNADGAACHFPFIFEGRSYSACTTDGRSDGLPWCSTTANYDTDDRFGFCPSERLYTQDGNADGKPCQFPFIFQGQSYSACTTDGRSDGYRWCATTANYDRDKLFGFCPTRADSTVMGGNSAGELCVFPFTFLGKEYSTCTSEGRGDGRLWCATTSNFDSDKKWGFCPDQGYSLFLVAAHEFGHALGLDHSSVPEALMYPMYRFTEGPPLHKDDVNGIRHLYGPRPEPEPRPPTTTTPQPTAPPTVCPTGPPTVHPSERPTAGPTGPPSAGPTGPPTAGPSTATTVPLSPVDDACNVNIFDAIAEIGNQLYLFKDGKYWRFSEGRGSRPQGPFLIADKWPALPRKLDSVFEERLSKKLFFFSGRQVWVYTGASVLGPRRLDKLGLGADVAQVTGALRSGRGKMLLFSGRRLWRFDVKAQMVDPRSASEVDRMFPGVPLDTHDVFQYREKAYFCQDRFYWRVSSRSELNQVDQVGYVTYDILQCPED

Structure (SMILES) | IC50 (MMP-9 (gelatinase B)) | IC50 (MMP-2 (gelatinase A))
C=CCOc1ccc(OCCCC[C@H](CC(=O)NO)C(=O)N[C@@H](Cc2ccccc2)C(=O)NC)cc1 [Compound 46, N-[(2R)-2-(2'-Hydroxyamino-2'-oxo-ethyl)-6-[(4-allyloxy-phenyl)oxy]hexanoyl]-L-phenylalanine N-Methylamide] | 160 nM | 250 nM
CNC(=O)[C@H](Cc1ccc(OC)cc1)NC(=O)[C@H](CCCCOc1ccc(OC)cc1)CC(=O)OCc1oc(=O)oc1C [Compound 64, (2S)-2-[(2R)-2-(2'-(5-Methyl-2-oxo-1,3-dioxolen-4-yl)-methylene-oxy-2'-oxo-ethyl]-6-[(4-methoxyphenyl)oxy]-hexanoyl]amino-3-(4-methoxy)phenylpropanoylmethylamide] | 980 nM | 2300 nM
COc1ccc(OCCC[C@H](CC(=O)O)C(=O)N[C@@H](Cc2ccccc2)C(=O)NCCS(N)(=O)=O)cc1 [Compound 12, 2-[[N-(2R)-2-(1'-Carboxymethyl)-5-[(4-methoxyphenyl)oxy]pentanoyl]-L-phenylalanyl]amino-ethanesulfonamid] | 3 nM | 21 nM
CNC(=O)[C@H](Cc1ccccc1)NC(=O)[C@H](CCOc1ccc(OC)cc1)CC(=O)O [Compound 8, N-[(2R)-2-(1'-Carboxymethyl)-4-[(4-methoxyphenyl)oxy]butyroyl]-L-phenylalanine N-Methylamide] | 35 nM | 160 nM
CCOc1ccc(C[C@H](NC(=O)[C@H](CCCCOc2ccc(OC)cc2)CC(=O)NO)C(=O)NC)cc1 [Compound 53, (2S)-2-[(2R)-2-(2'-Hydroxyamino-2'-oxo-ethyl)-6-[(4-methoxyphenyl)oxy]-hexanoyl]amino-3-(4-ethoxy)phenylpropanoylmethylamide] | 0.32 nM | 3.2 nM
COc1ccc(OCCC[C@H](CC(=O)NO)C(=O)N[C@@H](Cc2ccccc2)C(=O)NC(C)(C)C)cc1 [Compound 41, N-[(2R)-2-(2'-Hydroxyamino-2'-oxo-ethyl)-5-[(4-methoxyphenyl)oxy]pentanoyl]-L-phenylalanine N-tert-Butylamide] | 0.13 nM | 3.1 nM
COc1ccc(C[C@H](NC(=O)[C@H](CCCOc2ccc(OC)cc2)CC(=O)NO)C(=O)NCCS(N)(=O)=O)cc1 [Compound 50, 2-[(2S)-2-[(2R)-2-(2'-Hydroxyamino-2'-oxo-ethyl)-5-[(4-methoxyphenyl)oxy]-pentanoyl]amino-3-(4-methoxy)phenylpropanoyl]amino-ethanesulfonamide] | 0.052 nM | 0.45 nM
